This note sets out measurements from patent US4820834A, “Benzodiazepine analogs” (priority 1987, dated 1989).

One experiment deals with T1, CCK receptor (pancreas) (Rattus norvegicus, UniProt P30551).
T1 construct: The whole pancreas was dissected free of fat tissue and was homogenized; from tissue; host or cells: rat pancreas membranes (Sprague-Dawley)
T1 sequence (P30551 1-444): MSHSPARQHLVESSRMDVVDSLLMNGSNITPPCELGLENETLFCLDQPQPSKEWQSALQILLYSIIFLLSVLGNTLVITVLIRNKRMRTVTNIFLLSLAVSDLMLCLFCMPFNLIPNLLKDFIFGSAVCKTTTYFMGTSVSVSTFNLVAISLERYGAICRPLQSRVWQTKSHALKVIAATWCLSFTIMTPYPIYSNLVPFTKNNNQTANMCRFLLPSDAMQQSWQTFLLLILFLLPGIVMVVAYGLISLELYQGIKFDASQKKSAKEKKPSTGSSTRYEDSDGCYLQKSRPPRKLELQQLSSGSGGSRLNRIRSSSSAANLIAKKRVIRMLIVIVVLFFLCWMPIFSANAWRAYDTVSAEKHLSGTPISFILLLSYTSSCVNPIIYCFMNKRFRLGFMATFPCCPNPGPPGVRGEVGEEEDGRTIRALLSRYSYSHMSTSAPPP
In words: CCK Receptor Binding (Pancreas): inhibition of ^125 I-CCK-33 binding. Also noted: species or system Male Sprague-Dawley rats. The settings on record: rat pancreas membranes, ^125 I-CCK-33, 37° C., 30 minutes. As for the experimental part:
1. CCK Receptor Binding (Pancreas)
CCK-33 was radiolabeled with ^125 I-Bolton Hunter reagent (2000 Ci/mmole) as described by Sankara et al. (J. Biol. Chem. 254: 9349-9351, 1979). Receptor binding was performed according to Innis and Snyder (Proc. Natl. Acad. Sci. 77: 6917-6921, 1980) with the minor modification of adding the additional protease inhibitors, phenylmethane sulfonyl fluoride and o-phenanthroline.
Male Sprague-Dawley rats (200-350 g) were sacrificed by decapitation. The whole pancreas was dissected free of fat tissue and was homogenized in 20 volumes of ice-cold 50 mM, Tris HCl (pH 7.7 at 25° C.) with a Brinkmann Polytron PT 10. The homogenates were centrifuged at 48,000 g for 10 min. Pellets were resuspended in Tris Buffer, centrifuged as above and resuspended in 200 volumes of binding assay buffer (50 mM Tris HCl, pH 7.7 at 25° C., 5 mM dithiothrietol, 0.1 mM bacitracin, 1.2 mM phenylmethane sulfonyl fluoride and 0.5 mM o-phenanthroline). […] All assays were run in duplicate or triplicate. The reaction mixtures were incubated at 37° C. for 30 minutes and centrifuged in a Beckman Microfuge (4 minutes) immediately after adding 1 ml of ice-cold incubation buffer. The supernatant was aspirated and discarded, pellets were counted with a Beckman gamma 5000. For Scatchard analysis (Ann. N.Y. Acad. Sci. 51: 660, 1949), ^125 I-CCK-33 was progressively diluted with increasing concentrations of CCK-33.

Experiment [1] deals with T2, CCK receptor (brain, cerebral cortex) (Cavia porcellus, UniProt H0VZC5).
T2 construct: Cerebral cortex was dissected and used as a receptor source; from tissue; host or cells: guinea pig cerebral cortex membranes (male Hartley)
T2 sequence (H0VZC5 1-426): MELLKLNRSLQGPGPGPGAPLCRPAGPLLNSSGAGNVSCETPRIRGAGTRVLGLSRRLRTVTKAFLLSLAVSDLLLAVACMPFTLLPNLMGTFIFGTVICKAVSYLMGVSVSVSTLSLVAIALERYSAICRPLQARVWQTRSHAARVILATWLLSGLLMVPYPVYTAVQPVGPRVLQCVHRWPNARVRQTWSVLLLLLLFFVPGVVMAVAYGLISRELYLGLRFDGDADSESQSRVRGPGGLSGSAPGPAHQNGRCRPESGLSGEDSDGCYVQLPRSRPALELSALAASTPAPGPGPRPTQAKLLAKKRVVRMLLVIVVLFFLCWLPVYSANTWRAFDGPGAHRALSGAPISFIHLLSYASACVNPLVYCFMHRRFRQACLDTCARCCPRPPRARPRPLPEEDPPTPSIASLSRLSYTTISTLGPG
In words: biochemical. Format: binding, Male Hartley guinea pigs. The settings on record: guinea pig cerebral cortex, ^125 I-CCK-33, 25° C., 2 hours. In outline: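 Guinea pig cerebral cortex homogenate as receptor source, with radiolabeled CCK-33 in HEPES buffer containing MgCl2, bacitracin, EGTA and 0.4% BSA. Incubation 2 h at 25°C; bound ligand pelleted by centrifugation and gamma-counted.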

Setting [2] is: read-out: IC50 ^125 I-CCK Pancreas.
Setting [3] is: read-out: IC50 ^125 I-CCK Brain.

Read-outs that look alike come from different tables or passages of the source.

Turning to `O=C1Nc2ccc(Cl)cc2C(c2ccccc2)=NC1Cc1cccc2ccccc12` (racemic) [Example 17, 7-Chloro-1,3-dihydro-3(RS)-(1-naphthyl)methyl-5-phenyl-2H-1,4-benzodiazepin-2-one], the half-maximal inhibitory concentration (IC50) is 23 µM at CCK receptor (pancreas) (IC50 ^125 I-CCK Pancreas) and 100 µM in experiment [1] (IC50 ^125 I-CCK Brain).
For `O=C1Nc2ccc(Cl)cc2C(c2ccccc2)=NC1Cc1ccc2ccccc2c1` (racemic) [Example 18, 7-Chloro-1,3-dihydro-3(RS)-(2-naphthyl)methyl-5-phenyl-2H-1,4-benzodiazepin-2-one] the same measures were 49 µM and 61 µM.
On the same counts, the results for `O=C1Nc2ccccc2C(c2ccccc2F)=NC1Cc1cccs1` (racemic) [Example 19, 1,3-Dihydro-5-(2-fluorophenyl)-3(RS)-(2-thienyl)methyl-2H-1,4-benzodiazepin-2-one] are 33 µM and above 100 µM.
With `O=C1Nc2ccccc2C(c2ccccc2F)=NC1Cc1c[nH]c2cc(F)ccc12` (racemic) [Example 60, 1,3-Dihydro-3(RS)-[3'-(6'-fluoroindolyl)methyl]-5-o-fluorophenyl-2H-1,4-benzodiazepin-2-one], the results for the 50% inhibitory concentration (IC50) (at CCK receptor (pancreas) (IC50 ^125 I-CCK Pancreas); in experiment [1] (IC50 ^125 I-CCK Brain)) were 1.3 µM and 100 µM, respectively.
In the case of `CN1C(=O)[C@@H](Cc2c[nH]c3ccccc23)N=C(c2ccccc2F)c2ccccc21` [Example 4b, 1,3-dihydro-5-(2-fluorophenyl)-3(R)-(3'-indolyl) methyl-1-methyl-2H-1,4-benzodiazepin-2-one], the results for the half-inhibitory concentration (IC50) (on CCK receptor (pancreas) (IC50 ^125 I-CCK Pancreas); in experiment [1] (IC50 ^125 I-CCK Brain)) were 0.27 µM and 18 µM, respectively.
On the same counts, the results for `O=C1Nc2ccc(Cl)cc2C(c2ccccc2)=N[C@@H]1Cc1c[nH]c2ccccc12` [Example 5, 7-Chloro-1,3-dihydro-3(R)-(3'-indolyl)methyl-5-phenyl-2H-1,4-benzodiazepin-2-one] are 3.4 µM and 100 µM.
For `O=C1Nc2ccccc2C(c2ccccc2)=N[C@@H]1Cc1c[nH]c2ccccc12` [Example 6, 1,3-Dihydro-3(R)-(3'-indolyl)methyl-5-phenyl-2H-1,4-benzodiazepin-2-one] the same measures were 1.2 µM and 50 µM.
Turning to `O=C1Nc2ccc(Cl)cc2C(c2ccccc2)=N[C@@H]1Cc1ccc(OCc2ccccc2)cc1` [Example 16, 7-Chloro-1,3-dihydro-3(R)-(4-benzyloxybenzyl)-5-phenyl-2H-1,4-benzodiazepin-2-one], the IC50 (at CCK receptor (pancreas) (IC50 ^125 I-CCK Pancreas); in experiment [1] (IC50 ^125 I-CCK Brain)) was above 100 µM in each case.
On to `O=C1Nc2ccc(Cl)cc2C(c2ccccc2)N[C@@H]1Cc1c[nH]c2ccccc12` (stereo partly drawn) [Example 25, 7-Chloro-1,3,4,5-tetrahydro-3(R)-(3'-indolyl)methyl-5-phenyl-2H-1,4-benzodiazepin-2-one], for which the 50% inhibitory concentration (IC50) on CCK receptor (pancreas) (setting [2]) is 12 µM; in experiment [1] (setting [3]), above 100 µM.
On the same counts, the results for `O=C1Nc2ccc(Cl)cc2C(c2ccccc2)N[C@H]1Cc1c[nH]c2ccccc12` (stereo partly drawn) [Example 26, 7-Chloro-1,3,4,5-tetrahydro-3(S)-(3'-indolyl)methyl-5-phenyl-2H-1,4-benzodiazepin-2-one] are 75 µM and above 100 µM.
In the case of `CN1C(=O)[C@@H](Cc2cn(C)c3ccccc23)N(C(=O)c2ccc(Cl)cc2)C(c2ccccc2F)c2ccccc21` (stereo partly drawn) [Example 27a, 4-(p-Chlorobenzoyl)-5-(2-fluorophenyl)-3(R)-[3'-(1'-methylindolyl)-methyl]-1-methyl-1,3,4,5-tetrahydro-2H-1,4-benzodiazepin-2-one], the concentration for half-maximal inhibition (IC50) (on CCK receptor (pancreas) (setting [2]); in experiment [1] (setting [3])) was above 100 µM each time.
`CC(C)CC(NC(=O)OC(C)(C)C)C(=O)N1CC(CC2N=C(c3ccccc3)c3ccccc3NC2=O)c2ccccc21` (centres unmarked) [Example 225, (1-((3-((2,3-Dihydro-2-oxo-5-phenyl-1H-1,4-benzodiazepin-3-yl)methyl)-2,3-dihydro-1H-indol-1-yl)carbonyl)-3-methylbutyl)-carbamic acid-1,1-dimethylethyl ester] showed a concentration for half-maximal inhibition (IC50) at CCK receptor (pancreas) (IC50 ^125 I-CCK Pancreas) of 4.7 µM.

The term IC50 denotes the concentration that inhibits the measured activity by half.
